The results in this text go back to US5801016A, “DNA fragment, recombinant vector containing the same and method for expressing foreign genes using the same” (Japan Tobacco Inc., priority 1995, dated 1998).

Assay [1] has as its target T1, rice (Oryza sativa) bran phospholipase D (PLD), purified fraction Mono Q 2nd-I (Oryza sativa subsp. japonica, UniProt Q43007).
T1 construct: bran of rice (Oryza sativa); from tissue; host or cells: rice (Oryza sativa) bran, variety KOSHIHIKARI, purified to Mono Q 2nd-I
T1 sequence (Q43007 47-812): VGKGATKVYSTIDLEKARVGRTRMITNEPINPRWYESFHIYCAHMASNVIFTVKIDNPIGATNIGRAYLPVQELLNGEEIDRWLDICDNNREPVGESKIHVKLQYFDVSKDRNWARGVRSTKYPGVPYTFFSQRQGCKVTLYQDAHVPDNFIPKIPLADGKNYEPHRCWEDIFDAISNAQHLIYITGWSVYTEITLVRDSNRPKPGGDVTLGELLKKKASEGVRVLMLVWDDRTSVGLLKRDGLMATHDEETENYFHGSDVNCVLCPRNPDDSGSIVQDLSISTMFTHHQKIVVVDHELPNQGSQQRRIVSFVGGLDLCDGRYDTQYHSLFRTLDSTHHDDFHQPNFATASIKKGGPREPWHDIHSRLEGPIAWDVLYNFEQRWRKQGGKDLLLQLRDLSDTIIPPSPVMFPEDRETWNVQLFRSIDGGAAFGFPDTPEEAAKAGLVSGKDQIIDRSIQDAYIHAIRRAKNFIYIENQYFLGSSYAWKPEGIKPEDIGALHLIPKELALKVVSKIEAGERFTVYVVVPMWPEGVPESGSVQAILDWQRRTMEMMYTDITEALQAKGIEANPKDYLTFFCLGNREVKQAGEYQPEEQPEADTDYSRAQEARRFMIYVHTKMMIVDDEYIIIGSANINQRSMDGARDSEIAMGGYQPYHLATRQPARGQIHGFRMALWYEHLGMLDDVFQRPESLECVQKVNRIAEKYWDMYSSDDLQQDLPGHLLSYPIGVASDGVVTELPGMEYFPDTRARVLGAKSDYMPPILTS
The assay is described as follows: PLD enzyme activity with phosphatidylcholine as substrate, quantifying the choline generated. In kind it is biochemical. The conditions noted are these: eluted solution Mono Q 2nd-I. As to the method:
(§1) For purification, a reference (Takano et al., Journal of Japan Food Industry Association, 34, 8-13 (1987) was referred. The enzyme activity was measured by employing phosphatidylcholine as a substrate and quantifying the choline generated by the enzyme reaction (Imamura et al., J. Biochem. 83, 677-680 (1978)). It should be noted, however, the enzyme reaction was stopped by heat treatment at 95° C. for 5 minutes.
(§2) Properties of the enzymes contained in the two fractions were determined. The buffer solutions used for the measurement of the optimum pH were sodium acetate (pH 4-6), MES-NaOH (pH 5.5-7.0) and Tris-HCl (pH 7-9), all of which have a concentration of 100 mM in all of the buffer solutions. The pH stability means the pH range in which decrease in the enzyme activity is not observed after leaving the enzyme at the respective pH at 25° C. for 30 minutes. The temperature stability was measured by measuring the remaining activity after leaving the enzyme to stand at 4° C., 25° C., 37° C. or 50° C. for 30 minutes. The substrate specificity was measured at a substrate concentration of 5 mM and expressed in terms of the relative activity taking the enzyme activity to phosphatidylcholine as 100.

The target in assay [2] is T2, rice (Oryza sativa) bran phospholipase D (PLD), purified fraction Mono Q 2nd-II (Oryza sativa subsp. japonica, UniProt Q43007).
T2 construct: bran of rice (Oryza sativa); from tissue; host or cells: rice (Oryza sativa) bran, variety KOSHIHIKARI, purified to Mono Q 2nd-II
T2 sequence (Q43007 47-812): T1 sequence (Q43007 47-812)
The description is as above. In kind it is biochemical. To be noted: eluted solution Mono Q 2nd-II. The procedure:
as §1, §2

In the case of phosphatidylcholine, the Km in assay [1] and in assay [2] was 290 µM in each case.
